{"source": "patent US20040073277A1", "about": "“High fluence rate activation of photosensitizers for dermatological applications” (priority 2002, published 2004)", "key": {"actinic keratoses [1]": {"test_system": "actinic keratoses", "conditions": "cited from earlier work"}, "[2]": {"test_system": "photoaged or wrinkled skin", "conditions": "following ALA-PDT; cited from earlier work"}, "hair follicles": {"test_system": "hair follicles", "conditions": "photodynamic injury to hair follicles; cited from earlier work"}, "acne [3]": {"test_system": "acne", "conditions": "20% ALA for 3 hours on the back; broadband lamp 550 to 700 nm, 150 J/cm^2; cited from earlier work"}, "actinic keratoses [4]": {"test_system": "actinic keratoses", "conditions": "irradiation 4 hours after ALA, 580 to 740 nm lamp, 20 J/cm^2; cited from earlier work"}, "actinic keratoses [5]": {"test_system": "actinic keratoses", "assay": "ALA-PDT of lesional skin with pulsed dye laser below the purpura threshold", "assay_type": "in vivo, human", "protocol": "The present invention is generally directed to a method for activation of photodynamic sensitizers in dermatologic application.\nThe pulsed dye laser was operated below the purpura threshold of the skin at a fluence of about 3.0 to about 7.5 J/cm^2. […] Treatment was performed and successful with and without surface cooling. Surface cooling provided epidermal protection and additional pain reduction."}, "acne [6]": {"test_system": "acne", "conditions": "red light from a halogen lamp, 13 J/cm^2; cited from earlier work"}, "[7]": {"conditions": "20% ALA for 6 hours, 585 nm, 1.5 milliseconds, 18 J/cm^2"}, "[8]": {"conditions": "actinic keratoses, pulsed dye laser 595 nm below purpura threshold"}}, "note": "Where two headings read alike, the source gives them in different places."}
{"smiles": "NCC(=O)CCC(=O)O", "note": "[ALA, 5-Aminolevulinic acid]", "values": [{"measurement": "efficacy of pulsed dye laser versus conventional lamp", "setting": "actinic keratoses [1]; [7]", "value": "similar"}, {"measurement": "pain with pulsed dye laser versus conventional lamp", "setting": "actinic keratoses [1]; [7]", "value": "significantly lower"}, {"measurement": "duration of purpura after treatment", "setting": "actinic keratoses [1]; pulsed dye laser only, 585 nm, 1.5 milliseconds, 18 J/cm^2", "value": "up to two weeks"}, {"measurement": "duration of erythema and crusting after treatment", "setting": "actinic keratoses [1]; similar for pulsed dye laser and conventional lamp", "value": "up to two weeks"}, {"measurement": "photoaged or wrinkled skin", "setting": "[2]", "value": "improve"}, {"measurement": "excessive or unwanted hair", "setting": "hair follicles", "value": "reduced"}, {"measurement": "acne response", "setting": "acne [3]", "value": "improved"}, {"measurement": "side effects", "setting": "acne [3]", "value": "erythema, edema, exfoliation, and long-lasting hyperpigmentation"}, {"measurement": "side effects", "setting": "actinic keratoses [4]", "value": "erythema and skin erosions occurred"}, {"measurement": "treatment outcome of the lesion", "setting": "actinic keratoses [5]; ALA applied to lesional skin, pulsed dye laser 595 nm, pulse duration 3 to 40 milliseconds, fluence about 3.0 to about 7.5 J/cm^2", "value": "successfully treated"}, {"measurement": "pain, crusting and erosions of treated lesions", "setting": "actinic keratoses [5]; [8]", "value": "reduction in pain and in crusting and erosions"}, {"measurement": "purpura", "setting": "actinic keratoses [5]; [8]", "value": "without purpura"}, {"measurement": "efficacy compared with conventional ALA-PDT", "setting": "actinic keratoses [5]; pulsed light source", "value": "efficacy equivalent to conventional ALA-PDT"}, {"measurement": "side effects compared with conventional ALA-PDT", "setting": "actinic keratoses [5]; pulsed light source", "value": "fewer and minimal side effects"}, {"measurement": "side effects", "setting": "acne [6]", "value": "edematous erythema, epidermal exfoliation and irritation lasting several days, and pigmentation changes"}, {"measurement": "therapeutic response", "setting": "acne [6]", "value": "excellent therapeutic response"}, {"measurement": "time for treated skin to return to normal", "setting": "acne [6]", "value": "one month"}]}
